# Entries after “also recorded” stand apart in the source; their conditions may differ.
# What was measured:
# [1] = test system: Peripheral Neuropathy in a Mouse Caused by Oxaliplatin; assay: Cold plate test (10° C.), peripheral neuropathy caused by oxaliplatin; type: in vivo, Balb/c mice; settings: group receiving 6 mg/kg oxaliplatin only (i.p. Day 0, 7, 14), vs control group
# Description: The preventive action of xylitol on hyperesthesia that occurs when an anticancer drug, oxaliplatin, was administered was examined. […] Xylitol was orally administered to a mouse simultaneously with the administration of oxaliplatin, and the following tests (cold plate test and von Frey test) were performed. Oxaliplatin is an anticancer drug classified as a platinum-containing drug. In all of the examples described below, a dosage (administered amount) (mg/kg) refers to the weight of the administered substance per kg body weight of the mouse.
# Six to seven-week-old female Balb/c mice were used for the tests. All the mice were acclimated for seven days after arrival. Then, the mice were grouped into the following four groups: a control group, a group receiving oxaliplatin, and two groups receiving oxaliplatin and two different doses of xylitol (groups receiving oxaliplatin+xylitol). Each group consisted of nine mice.
# (§1) On Day 8 of acclimation, the mice in the group receiving oxaliplatin and the groups receiving oxaliplatin+xylitol were intraperitoneally administered with oxaliplatin at a dose of 6 mg/kg. This day was designated as Day 0 of administration. Thereafter, these mice were intraperitoneally administered with oxaliplatin at a daily dose of 6 mg/kg on Day 7 and Day 14.
# The mice in a first group receiving oxaliplatin and xylitol were orally administered with xylitol at a dose of 1 mg/kg daily from Day 0. The mice in a second group receiving oxaliplatin and xylitol were orally administered with xylitol at a dose of 5 mg/kg daily from Day 0.
# (§2) A cold plate test was performed to examine the effect of xylitol on paresthesia that is caused by a low temperature stimulus. The mice in the four groups described in (1) of the present example (Example 1) were placed on a cold plate set at 10° C., and withdrawal response time (latent time) was measured. It is presumed that a shorter latent time reflects a greater degree of shunning the low temperature stimulus by the cold plate.
# Six to seven-week-old female Balb/c mice were used for the tests as with Example 1. All the mice were acclimated for seven days after arrival. Then, the mice were grouped into the following five groups: a control group, a group receiving only oxaliplatin, and three groups receiving oxaliplatin and three different doses of xylitol. Each group consisted of seven mice.
# (§3) On Day 8 of acclimation, the mice in the groups other than the control group were intraperitoneally administered with oxaliplatin at a dose of 6 mg/kg. This day was designated as the first day of the administration (Day 0). Thereafter, these mice were intraperitoneally administered with oxaliplatin at the same dose on Day 7 and Day 14 for a total of 3 doses.
# The mice in a first group receiving oxaliplatin+xylitol were orally administered with xylitol at a dose of 5 mg/kg daily from Day 6 of administration. The mice in a second group receiving oxaliplatin+xylitol were orally administered with xylitol at a dose of 25 mg/kg daily from Day 6 of administration. The mice in a third group receiving oxaliplatin+xylitol were orally administered with xylitol at a dose of 100 mg/kg daily from Day 6 of administration. In this context, “Day 6 of administration” means that the number of days after administration is 6. The same applies hereinafter.
# as §2, with “A” for “A cold plate”, “performed on the mice in the five groups described in (1) of the present example (Example 2)” for “performed”, “respective” for “the four”, “groups” for “groups described in (1) of the present example (Example 1)”
# Six to seven-week-old female Balb/c mice were used for the tests as with Example 1. All the mice were acclimated for seven days after arrival. […]
# [2] = test system: Peripheral Neuropathy in a Mouse Caused by Oxaliplatin; assay: Von Frey test (0.16 g filament), peripheral neuropathy caused by oxaliplatin; type: in vivo, Balb/c mice; settings: group receiving 6 mg/kg oxaliplatin only (i.p. Day 0, 7, 14), vs control group
# Excerpt: (§4) Six to seven-week-old female Balb/c mice were used for the tests as with Example 1. All the mice were acclimated for seven days after arrival. Then, the mice were grouped into the following four groups: a control group, a group receiving oxaliplatin, a group receiving D-threitol, and a group receiving oxaliplatin and D-threitol (a group receiving oxaliplatin+D-threitol). Each group consisted of five mice.
# as §1, with “group” for “groups”, “oxaliplatin+D-threitol” for “oxaliplatin+xylitol”, “the first day” for “Day 0”, “the administration (Day 0).” for “administration.”
# The mice in the group receiving D-threitol and the group receiving oxaliplatin+D-threitol were orally administered with D-threitol at a dose of 5 mg/kg daily from Day 0.
# The mice in the four groups described in (1) of the present example (Example 3) were placed in a cage, and the avoidance response frequency (score) was measured by pressing a filament with a bending force of 0.16 g against the back of the hind paw.
# as §3, with “group receiving oxaliplatin and” for “groups other than”, “the” for “the control”, “group receiving oxaliplatin+D-threitol” for “group”
# The mice in the group receiving 100 mg/kg D-threitol were orally administered with D-threitol at a dose of 100 mg/kg daily from Day 0. The mice in the group receiving oxaliplatin+100 mg/kg D-threitol were orally administered with D-threitol at a dose of 100 mg/kg daily from Day 6 of administration.
# For the mice in the four groups described in (1) of the present example (Example 4), the avoidance response frequency (score) was measured by pressing a filament with a bending force of 0.16 g against the back of the hind paw.
# as §4, with “L-talitol,” for “D-threitol,”, “L-talitol” for “D-threitol”, “oxaliplatin+L-talitol).” for “oxaliplatin+D-threitol).”, “mice. […]” for “mice.”
# The mice in the four groups described in (1) of the present example (Example 5) were placed in a cage, and the avoidance response frequency (score) was measured by pressing a filament with a bending force of 0.16 g against the back of the hind paw. […]
# [3] = test system: Diabetic Peripheral Neuropathy in a Mouse Induced by Streptozotocin; assay: Cold plate test (4° C.), diabetic peripheral neuropathy induced by streptozotocin; type: in vivo, C57BL/6J mice; settings: group receiving streptozotocin only (200 mg/kg, Day 0 only), vs control group
# Description: (§5) Six to seven-week-old male C57BL/6J mice were used for the tests as with Example 7. All the mice were acclimated for seven days after arrival. Then, the mice were grouped into the following four groups: a control group, a group receiving streptozotocin, a group receiving 1 mg/kg xylitol, and a group receiving streptozotocin+1 mg/kg xylitol. Each group consisted of nine mice.
# (§6) The mice in the group receiving 1 mg/kg xylitol were orally administered with xylitol at a dose of 1 mg/kg daily from Day 0. The mice in the group receiving streptozotocin+1 mg/kg xylitol were orally administered with xylitol at a dose of 1 mg/kg daily from Day 21 of administration.
# A cold plate test was performed to examine the effect due to xylitol on paresthesia that is caused by a low temperature stimulus. The mice in the four groups described in (1) of the present example (Example 8) were placed on a cold plate set at 4° C., and withdrawal response time (latent time) was measured. It is presumed that a shorter withdrawal response time (latent time) reflects a greater degree of shunning the low temperature stimulus by the cold plate. […]
# (§7) On Day 8 of acclimation, the mice in the group receiving streptozotocin and the group receiving streptozotocin+5 mg/kg D-threitol were administered with streptozotocin at a dose of 200 mg/kg. A massive dose of streptozotocin destroys pancreatic cells in the mice. As a result, insulin is no longer secreted, and thus, diabetes can be developed in the mice. This day was designated as the first day of the administration (Day 0). Note that streptozotocin was administered only on the first day of administration.
# (§8) The mice in the group receiving 5 mg/kg D-threitol and the group receiving streptozotocin+5 mg/kg D-threitol were orally administered with D-threitol at a dose of 5 mg/kg daily from Day 0. […]
# The mice in the group receiving 5 mg/kg D-threitol were orally administered with D-threitol at a dose of 5 mg/kg daily from Day 0. The mice in the group receiving streptozotocin+5 mg/kg D-threitol were orally administered with D-threitol at a dose of 5 mg/kg daily from Day 21 of administration.
# (§9) A cold plate test was performed to examine the effect of D-threitol on paresthesia that is caused by a low temperature stimulus. The mice in the four groups described in (1) of the present example (Example 10) were placed on a cold plate set at 4° C., and withdrawal response time (latent time) was measured. […]
# as §9, with “L-talitol” for “D-threitol”, “11)” for “10)”
# [4] = test system: Diabetic Peripheral Neuropathy in a Mouse Induced by Streptozotocin; assay: Von Frey test (0.16 g filament), diabetic peripheral neuropathy induced by streptozotocin; type: in vivo, C57BL/6J mice; settings: group receiving streptozotocin only (200 mg/kg, Day 0 only), vs control group
# Description: as §7, with “streptozotocin+1” for “streptozotocin+5”, “xylitol” for “D-threitol”, “administration. […]” for “administration.”
# as §5, §6
# The mice in the four groups described in (1) of the present example (Example 8) were placed in a cage, and the avoidance response frequency (score) was measured by pressing a filament with a bending force of 0.16 g against the back of the hind paw. […]
# as §7, §8
# The mice in the group receiving 5 mg/kg D-threitol were orally administered with D-threitol at a dose of 5 mg/kg daily from Day 0. […]
# The mice in the four groups described in (1) of the present example (Example 10) were placed in a cage, and the avoidance response frequency (score) was measured by pressing a filament with a bending force of 0.16 g against the back of the hind paw. […]
# The mice in the four groups described in (1) of the present example (Example 11) were placed in a cage, and the avoidance response frequency (score) was measured by pressing a filament with a bending force of 0.16 g against the back of the hind paw. […]
Structure (SMILES),withdrawal response time (latent time) [1],avoidance response score [2],withdrawal response time (latent time) [3],avoidance response score [4]
"O=C1[O][Pt]2([NH][C@@H]3CCCC[C@H]3[NH]2)[O]C1=O [oxaliplatin, reference compound]",reduced from Day 3 to Day 6 of the test; also recorded: uniform reduction in the withdrawal response time,remarkable increase in the avoidance response score,,
"CN(N=O)C(=O)N[C@H]1C(O)O[C@H](CO)[C@@H](O)[C@@H]1O (mixture of isomers) [streptozotocin, reference compound]",,,reduced from Day 7,increased from Day 7

# Reference: patent publication US20240099989A1, “AGENT FOR PREVENTING OR IMPROVING PERIPHERAL NEUROPATHY” (KINKI UNIVERSITY, priority 2021, published 2024)
